Results on five molecules are retold here after patent US6803233B2, “Model for Alzheimer's disease and other neurodegenerative diseases” (priority 2000, dated 2004).

One experiment concerns tangle-like structures. The experiment can be described thus: AT8 immunostaining of cultured rat hippocampal slices. The experiment is classed as cell-based. The note with it: for number of ZPAD-induced tangles in the presence of the inhibitor: hippocampal slices, ZPAD plus inhibitor, 6 days.
Another experiment relates to TGF-beta. The experiment can be described thus: RT-PCR/northern blot of cytokine mRNA in cultured hippocampal slices. It is filed as cell-based.
The next experiment deals with reactive microglia. The experiment can be described thus: ED-1 immunocytochemistry of cultured brain explants. It is filed as cell-based, rat. The note with it: 6 days. On the procedure:
Immunocytochemical studies using the monoclonal antibody ED-1 that recognizes reactive microglia were used at 1:1000 dilution following standard immunohistochemical procedures. Microglial activation was determined by measuring cell numbers, optical density, and size of cell bodies using the program NIH Image. Brain tissue was cultured for 12 days and treated with ZPAD (20 μM) in the presence or absence of PD98059 (50 μM) for 6 days (FIG. 18). Cultured explants were then sliced and stained by using monoclonal antibody ED-1 which recognizes reactive microglia, a classical marker of inflammation. […] Cultured brain explants were then sliced and stained by using monoclonal antibody ED-1, a classical marker for reactive microglia and macrophages.

The subject of another experiment is MAPK (ERK1/2). Put plainly: Immunoblot with anti-active MAPK in cultured hippocampal slices. The experiment is classed as cell-based. The note with it: 6 days. (A western blot detects proteins with antibodies after separation by electrophoresis.)
The next experiment has as its system APP. Put plainly: Immunoblot of APP in hippocampal slices, mevastatin plus kinase inhibitors (Example 8). It is filed as cell-based.
In the next experiment the test system is tau. The experiment can be described thus: Immunoblot of tau (tau-1, AT8) in cultured rat hippocampal slices. It is filed as cell-based.
Experiment [1] concerns p35. Put plainly: Immunoblot of p35/p25 in cultured rat hippocampal slices. It is filed as cell-based. The note with it: 6 days.
Method: Hippocampal slices were collected, homogenized, and subjected to SDS-PAGE electrophoresis. Immunoblots were then probed with anti-p35 sera that were raised against the C-terminal domain of p35.
(§1) Cultures of hippocampal slices were prepared from 10-12 days old rats.
The test system of a further experiment is tau protein. The note with it: literature report; cited from earlier work.
For the next experiment, the system named is cathepsin D. The note with it: literature report; cited from earlier work.
The test system of experiment [2] is p35. The experiment can be described thus: Immunoblot of p35 in hippocampal slices from apoE-knockout mice. It is filed as cell-based. The note with it: apoE-knockout mouse slices; mevastatin plus agent.
Experiment [3] has as its system amyloid precursor protein (APP). Put plainly: Immunoblot of APP (antibody 22C11) in hippocampal slices from apoE-knockout mice. The experiment is classed as cell-based, mouse. An excerpt:
Tissues were processed for immunoblotting and assessed by monoclonal antibody 22C11, which recognizes the N-terminal domain of amyloid precursor protein (APP). […] Whether this new product is due to proteolysis or changes in protein maturation is under investigation.

Another experiment relates to IL-10. The experiment can be described thus: RT-PCR/northern blot of cytokine mRNA in cultured hippocampal slices. The experiment is classed as cell-based. The note with it: ZPAD 20 μM, mevastatin 20 μM.
The next experiment deals with TNF-alpha. The description is as above. The note with it: mevastatin 20 μM. It is filed as cell-based. An excerpt: FIG. 17. Messenger RNA levels of TNF-alpha are increased by interruption of cholesterol synthesis.
Levels of mRNA for the cytokines were quantified by RT-PCR and northern blot analysis, following protocols outlined in the RT-PCR kit (Ambion Inc.).

Another experiment has as its system microglia. The experiment can be described thus: CD11b immunostaining of hippocampus of rats injected daily with statins. It is filed as in vivo, rat. The note with it: male Sprague-Dawley rats, 10 mg/kg i.p. daily for 39 days. On the procedure:
Brains were then removed, postfixed in perfusate for 5-6 hors, and cryoprotected in 15% sucrose/PB followed by 30% sucrose/PB (12-24 hours each) at 4° C. Coronal sections were cut at 20-30 μm by using a freezing microtome and collected into PBS. Immunostaining was performed as described for the in vitro experiments using monoclonal antibody CD11b that reacts with both active and non-active microglia.

“Also recorded” adds a separate entry of the source. Square brackets hold non-standard residues; d marks the D form. Peptide text beside a SMILES is read from it. Nle = CCCC[C@H](N)C(=O)O

Method for tangle-like structures: Cultured slices were stained with anti-phosphorylated tau antibody AT8.
as §1
Cultured rat hippocampal slices of 12 days in vitro were treated with 20 μM pravastatin for 6 days and processed from immunohistological studies with the monoclonal antibody AT8. The subiculum, CA1 field, and CA3 field of the hippocampus were examined by photomicroscopy.

Take `COc1cccc(-c2cc(=O)c3ccccc3o2)c1N` [PD98059, 2-2(Amino-3-methoxyphenyl)-4H-1-benzopyran-4-one]: the “number of ZPAD-induced tangles in the presence of the inhibitor” value in the experiment with tangle-like structures is reported as “significantly reduced”. Further, the “mRNA levels for certain cytokines (FIG. 16)” value in the experiment on TGF-beta (PD98059 treatment) is “decreased”. Besides, the “ZPAD-induced reaction of microglia with co-application of the inhibitor” value with reactive microglia (ZPAD 20 μM plus PD98059 50 μM) is listed as “completely blocked”. For the same molecule, the “reaction of microglia (ED-1 staining)” value in the experiment on reactive microglia (ZPAD 20 μM, mevastatin 20 μM or PD98059 50 μM alone) is “did not induce evident change in microglia”. Besides, the “MAPK activation by mevastatin and ZPAD in the presence of the inhibitor” value in the experiment on MAPK (ERK1/2) is “blocked”. Besides, in the experiment on APP, the “effects of mevastatin on APP in the presence of the inhibitor” value is “partially blocked”.
Consider `CCCC[C@@H](C=O)NC(=O)[C@H](CC(C)C)NC(=O)[C@H](CC(C)C)NC(C)=O` [calpain inhibitor I, N-acetyl-leucyl-leucyl-norleucinal] (Ac-Leu-Leu-[Nle]-aldehyde), for which, in the experiment with tangle-like structures, the “number of ZPAD-induced tangles in the presence of the inhibitor” value is “significantly reduced”. Further, the “ZPAD-induced tau fragments (tau 15-35 / tau 29 and tau 40) in the presence of the inhibitor” value with tau (ZPAD plus inhibitor, 6 days, 2 separate experiments) is listed as “almost completely blocked”. Further, the “ZPAD-induced conversion of p35 to p25 in the presence of the inhibitor” value in the experiment on p35 [1] (ZPAD plus inhibitor) is on record as “significantly inhibited”.
On to `CCN(CC)CCCC(C)Nc1ccnc2cc(Cl)ccc12` (stereo not drawn) [chloroquine], for which the “29 kDa tau fragment (tau 29)” value in the experiment with tau protein is listed as “delayed appearance of a 29 kDa fragment”. Further, in the experiment on cathepsin D, the “enzymatically active cathepsin D” value is on record as “increases in enzymatically active cathepsin D”.
On to `CC(O)(CCO)CC(=O)O` (stereo not drawn) [mevalonate], for which the “mevastatin-induced down regulation of p35 in the presence of the agent” value with p35 [2] is listed as “completely blocked”. In addition, in [3] (mevastatin plus agent), the “effects of mevastatin on APP in the presence of the agent” value is listed as “completely blocked”.
Regarding `CC[C@H](C)C(=O)O[C@H]1CCC=C2C=C[C@H](C)[C@H](CC[C@@H]3C[C@@H](O)CC(=O)O3)[C@H]21` [mevastatin], the “induction of AT8-immunoreactive tangle-like structures” value with tangle-like structures (rat hippocampal slices, agent applied for 6 days) is “moderately increased; also recorded: resulted in tangle-like structures”. For the same molecule, the “phosphorylated 33 kDa tau breakdown products (AT8 blot)” value with tau (rat hippocampal slices) was “markedly enhanced”. Besides, the “levels of p35” value in the experiment on p35 [1] (hippocampal slices) was “significant decreases; also recorded: rapidly and markedly decreased; also recorded: reduced”. Moreover, the “mRNA levels of TGF-beta” value in the experiment on TGF-beta (ZPAD 20 μM, mevastatin 20 μM) is “increased”. Besides, the “mRNA levels of IL-10” value in the experiment on IL-10 was “increased”. Moreover, the “mRNA level of TNF-alpha” value with TNF-alpha was “markedly increase”. Further, the “activated MAPK (ERK1/2)” value in the experiment with MAPK (ERK1/2) (hippocampal slices) is “activated; also recorded: increased; also recorded: activation”. In addition, in experiment [3] (mevastatin treatment), the “levels of full length APP” value is recorded as “increased levels” and the “novel APP band with molecular weight slightly lower than native APP” value is recorded as “induced a novel band”. For the same molecule, in experiment [3] (mevastatin treatment, listed as Mevastatin), the “levels of full length APP” value was “markedly increased”. In addition, in the experiment on microglia, the microglial reactions entry is recorded as “induced; also recorded: Induction of microglial reactions”.
